Data: PubChem BioAssay AID1918948 (Molecular Pharmacology Branch, DTP, NCI, 2023)

Tested on: K-562 leukemia growth, % test/control
Experiment: Anticancer human tumor K-562 cell line growth inhibition;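 further: spheroids exposed to compounds for 7 days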;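 on viability, T/C: 100% = DMSO vehicle wells and lower values mean fewer viable cells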
Settings: spheroids with HUVEC and MSC; for IC50: curve of first compound; for viability, T/C: stronger effect = lower value
Procedure, shortened: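 Multicellular complex spheroids of tumor cells with human endothelial cells (HUVEC) and mesenchymal stem cells; the LSD1 inhibitor iadademstat was combined with standard-of-care or investigational agents. Top concentration at or near clinical Cmax, half-log dilutions; final DMSO ≤0.25%.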

[1] = second compound 0.1 µM, first compound 0.0316 µM
[2] = second compound 0.1 µM, first compound 0.1 µM
[3] = second compound 0.1 µM, first compound 0.316 µM
[4] = second compound 0.1 µM, first compound 1 µM
[5] = second compound 0.1 µM, first compound 3.16 µM
[6] = second compound 0.1 µM, first compound 10 µM
[7] = second compound 0.316 µM, first compound 0.0316 µM
[8] = second compound 0.316 µM, first compound 0.1 µM
[9] = second compound 0.316 µM, first compound 0.316 µM
[10] = second compound 0.316 µM, first compound 1 µM
[11] = second compound 0.316 µM, first compound 3.16 µM
[12] = second compound 0.316 µM, first compound 10 µM
[13] = second compound 1 µM, first compound 0.0316 µM
[14] = second compound 1 µM, first compound 0.1 µM
[15] = second compound 1 µM, first compound 0.316 µM
[16] = second compound 1 µM, first compound 1 µM
[17] = second compound 1 µM, first compound 3.16 µM
[18] = second compound 1 µM, first compound 10 µM
[19] = second compound 3.16 µM, first compound 0.0316 µM
[20] = second compound 3.16 µM, first compound 0.1 µM
[21] = second compound 3.16 µM, first compound 0.316 µM
[22] = second compound 3.16 µM, first compound 1 µM
[23] = second compound 3.16 µM, first compound 3.16 µM
[24] = second compound 3.16 µM, first compound 10 µM
[25] = second compound 10 µM, first compound 0.0316 µM
[26] = second compound 10 µM, first compound 0.1 µM
[27] = second compound 10 µM, first compound 0.316 µM
[28] = second compound 10 µM, first compound 1 µM
[29] = second compound 10 µM, first compound 3.16 µM
[30] = second compound 10 µM, first compound 10 µM
[31] = second compound 0.1 µM, first compound 0.00316 µM
[32] = second compound 0.1 µM, first compound 0.01 µM
[33] = second compound 0.316 µM, first compound 0.00316 µM
[34] = second compound 0.316 µM, first compound 0.01 µM
[35] = second compound 1 µM, first compound 0.00316 µM
[36] = second compound 1 µM, first compound 0.01 µM
[37] = second compound 3.16 µM, first compound 0.00316 µM
[38] = second compound 3.16 µM, first compound 0.01 µM
[39] = second compound 10 µM, first compound 0.00316 µM
[40] = second compound 10 µM, first compound 0.01 µM

Compound | IC50 (second compound 0.1 µM) [nM] | IC50 (second compound 0.316 µM) [nM] | IC50 (second compound 1 µM) [nM] | IC50 (second compound 3.16 µM) [nM] | IC50 (second compound 10 µM) [nM] | viability, T/C [1] [%] | viability, T/C [2] [%] | viability, T/C [3] [%] | viability, T/C [4] [%] | viability, T/C [7] [%] | viability, T/C [8] [%] | viability, T/C [9] [%] | viability, T/C [10] [%] | viability, T/C [13] [%] | viability, T/C [14] [%] | viability, T/C [15] [%] | viability, T/C [16] [%] | viability, T/C [19] [%] | viability, T/C [20] [%] | viability, T/C [21] [%] | also measured
CC(C)c1c(-c2ccccc2)nc2c(C#N)c[nH]n2c1=O + NC1CCC(NC2CC2c2ccccc2)CC1 | > 10000 | > 10000 | > 10000 | > 10000 | > 10000 | 98.7 | 95.2 | 96.6 | 100 | 100 | 101 | 99.8 | 98.6 | 102 | 102 | 100 | 99.4 | 102 | 102 | 99.7 | viability, T/C [5]: 99.1%; viability, T/C [6]: 98.9%; viability, T/C [11]: 99.6%; viability, T/C [12]: 98.9%; viability, T/C [17]: 100%; viability, T/C [18]: 101%; viability, T/C [22]: 102%; viability, T/C [23]: 103%; viability, T/C [24]: 100%; viability, T/C [25]: 95.6%; viability, T/C [26]: 98.7%; viability, T/C [27]: 96.8%; viability, T/C [28]: 97%; viability, T/C [29]: 97.9%; viability, T/C [30]: 98.4%
CC1COCCN1c1cc(-c2ccnn2C)c2ccnc(-c3ccn[nH]3)c2n1 (stereo not given) + NC1CCC(NC2CC2c2ccccc2)CC1 | 11.2 | 12.2 | 11.4 | 10.1 | 7.2 | 10.2 | 3.75 | 2.62 | 2.45 | 12.9 | 3.52 | 2.63 | 2.48 | 9.5 | 3.51 | 2.76 | 2.82 | 11.5 | 3.8 | 3.16 | viability, T/C [31]: 90.4%; viability, T/C [32]: 54.5%; viability, T/C [33]: 91%; viability, T/C [34]: 57.9%; viability, T/C [35]: 92.7%; viability, T/C [36]: 55.1%; viability, T/C [37]: 92.2%; viability, T/C [38]: 50.2%; viability, T/C [22]: 2.7%; viability, T/C [39]: 83.3%; viability, T/C [40]: 36.7%; viability, T/C [25]: 8.26%; viability, T/C [26]: 4.09%; viability, T/C [27]: 2.75%; viability, T/C [28]: 3.72%
COc1ccc([C@@H](O)c2cc(-c3ncnc4cc(N5CCOCC5)ccc34)c(F)cc2Cl)nn1 + NC1CCC(NC2CC2c2ccccc2)CC1 | 9230 | 9900 | > 10000 | 9830 | 8180 | 100 | 100 | 101 | 103 | 101 | 101 | 104 | 106 | 105 | 103 | 105 | 105 | 101 | 102 | 103 | viability, T/C [5]: 96.6%; viability, T/C [6]: 46.5%; viability, T/C [11]: 98.2%; viability, T/C [12]: 49.5%; viability, T/C [17]: 98.2%; viability, T/C [18]: 51.8%; viability, T/C [22]: 104%; viability, T/C [23]: 97.4%; viability, T/C [24]: 49.2%; viability, T/C [25]: 99.5%; viability, T/C [26]: 101%; viability, T/C [27]: 101%; viability, T/C [28]: 98.2%; viability, T/C [29]: 91.8%; viability, T/C [30]: 41%
O=C(C=Cn1cnc(-c2cc(C(F)(F)F)cc(C(F)(F)F)c2)n1)NNc1cnccn1 + NC1CCC(NC2CC2c2ccccc2)CC1 | 59.8 | 58.9 | 61 | 60.6 | 43.1 | 69.5 | 36.6 | 4.19 | 1.72 | 69.2 | 36.5 | 4.44 | 1.67 | 70 | 38.2 | 4.8 | 2.29 | 67.8 | 38.8 | 4.71 | viability, T/C [31]: 104%; viability, T/C [32]: 92.3%; viability, T/C [33]: 107%; viability, T/C [34]: 92%; viability, T/C [35]: 107%; viability, T/C [36]: 91.5%; viability, T/C [37]: 103%; viability, T/C [38]: 92.5%; viability, T/C [22]: 1.78%; viability, T/C [39]: 88.8%; viability, T/C [40]: 75.1%; viability, T/C [25]: 57.1%; viability, T/C [26]: 33.7%; viability, T/C [27]: 3.55%; viability, T/C [28]: 2.29%
